In ChEMBL document CHEMBL1121493, “Folate analogues altered in the C9-N10 bridge region. 16. Synthesis and antifolate activity of 11-thiohomoaminopterin” (J Med Chem, 1980):
pIC50: −log10 of the molar value. ≈ marks a conversion by molar mass, not a printed value.

Legend:
[1] = target: Reduced folate carrier (Homo sapiens); test: Ability to compete with methotrexate transport in human HeLa cells was determined; details: read-out: I50
Lacticaseibacillus casei [2] = test: The compound was tested for inhibition of growth of Lactobacillus casei at 0.1 ng/ml (ATCC 7469); assay type: functional, organism-based; details: read-out: I 50
Enterococcus faecium [3] = test: The compound was tested for inhibition of growth of Streptococcus faecium (ATCC 8043) at 0.1 ng/ml; assay type: functional, organism-based; details: read-out: I 50
Lacticaseibacillus casei [4] = test: (§1) The compound was tested for inhibition of growth of Lactobacillus casei (ATCC 7469) at 0.1 ng/ml; assay type: functional, organism-based; details: read-out: I 50
Dihydrofolate reductase [5] = target: T1, Dihydrofolate reductase (Homo sapiens, UniProt P00374); test: Ability to inhibit human HeLa cell dihydrofolate reductase in vitro was determined
T1 sequence (P00374 whole entry): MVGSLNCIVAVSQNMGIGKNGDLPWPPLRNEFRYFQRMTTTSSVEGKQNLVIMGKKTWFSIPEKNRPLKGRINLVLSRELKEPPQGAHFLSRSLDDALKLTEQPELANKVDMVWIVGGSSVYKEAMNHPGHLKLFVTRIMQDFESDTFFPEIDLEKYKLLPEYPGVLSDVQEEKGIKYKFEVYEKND

Dihydrofolate reductase [6] = target: Dihydrofolate reductase (Lactobacillus casei, UniProt P00381); test: Ability to inhibit Lactobacillus casei dihydrofolate reductase in vitro was determined
Enterococcus faecium [7] = test: The compound was tested for inhibition of growth of Streptococcus faecium (ATCC 8043) at 2.0 ng/ml; assay type: functional
[8] = target: Reduced folate carrier (Homo sapiens); test: Ability to compete with methotrexate transport in human HeLa cells was determined; details: read-out: I50; remark: listed apart in the source
Thymidylate synthase = target: T2, Thymidylate synthase (Lactobacillus casei, UniProt P00469); test: Ability to inhibit Lactobacillus casei thymidylate synthase in vitro was determined; set-up: species or system Lacticaseibacillus casei; details: read-out: I50
T2 sequence (P00469 whole entry): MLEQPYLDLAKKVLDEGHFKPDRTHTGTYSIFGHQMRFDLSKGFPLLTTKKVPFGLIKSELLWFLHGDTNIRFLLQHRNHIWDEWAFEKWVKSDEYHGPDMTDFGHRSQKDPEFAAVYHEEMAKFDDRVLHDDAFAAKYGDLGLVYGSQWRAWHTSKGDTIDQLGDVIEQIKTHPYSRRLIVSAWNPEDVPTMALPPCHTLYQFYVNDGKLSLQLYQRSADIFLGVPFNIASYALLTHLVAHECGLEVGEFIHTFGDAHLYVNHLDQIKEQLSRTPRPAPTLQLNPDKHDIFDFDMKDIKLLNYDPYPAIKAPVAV

Lacticaseibacillus casei [9] = test: as §1; assay type: functional

Chain of Dihydrofolate reductase (Lactobacillus casei, UniProt P00381) (P00381 whole entry): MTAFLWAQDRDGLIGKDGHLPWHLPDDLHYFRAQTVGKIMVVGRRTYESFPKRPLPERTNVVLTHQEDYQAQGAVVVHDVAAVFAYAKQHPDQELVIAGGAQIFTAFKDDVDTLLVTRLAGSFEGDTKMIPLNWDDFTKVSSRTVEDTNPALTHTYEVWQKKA

## Nc1nc(N)c2nc(CSc3ccc(C(=O)NC(CCC(=O)O)C(=O)O)cc3)cnc2n1 (stereo unspecified)
[1]
  pIC50: 5.57

## COC(=O)c1ccc(SCCc2cnc3nc(N)nc(N)c3n2)cc1
Lacticaseibacillus casei [2]
  IC50: 0.4 µg/mL (≈ 1.12 µM)
Enterococcus faecium [3]
  IC50: 0.016 µg/mL (≈ 0.0449 µM)

## Nc1nc(N)c2nc(CCSc3ccc(C(=O)O)cc3)cnc2n1
Enterococcus faecium [3]
  IC50: 0.1 µg/mL (≈ 0.292 µM)
Lacticaseibacillus casei [4]
  IC50: 0.1 µg/mL (≈ 0.292 µM)

## Nc1nc(N)c2nc(COc3ccc(C(=O)NC(CCC(=O)O)C(=O)O)cc3)cnc2n1 (stereo unspecified)
Dihydrofolate reductase [5]
  pIC50: 6.13

## Nc1nc(N)c2nc(CCSc3ccc(C(=O)NC(CCC(=O)O)C(=O)O)cc3)cnc2n1 (stereo unspecified)
Dihydrofolate reductase [6]
  pIC50: 6.40
Enterococcus faecium [7]
  inhibition at 0.002 µg/mL: 50%
[8]
  pIC50: 4.60
Thymidylate synthase
  pIC50: 4.22
Lacticaseibacillus casei [9]
  inhibition at 0.0001 µg/mL: 50%
